According to DBAASP:
In brackets after ≈: the same amount, converted by molar mass.

Key:
Experiment in all cases: ≥ marks a high value that may be exact or a test limit, other limits are often not marked, values filed in µg/mL are converted to µM
[1] = system: Enterococcus faecalis ATCC 29212
[2] = system: Escherichia coli ATCC 25922
[3] = system: Escherichia coli UB1005
[4] = system: Salmonella enterica subsp. enterica serovar Choleraesuis CVCC 503
[5] = system: Salmonella enterica subsp. enterica serovar Pullorum C79-13
[6] = system: Salmonella enterica subsp. enterica serovar Typhimurium ATCC 14028
[7] = system: Salmonella enterica subsp. enterica serovar Typhimurium C77-31
[8] = system: Staphylococcus aureus ATCC 29213
[9] = system: Staphylococcus aureus ATCC 43300
[10] = system: Staphylococcus aureus
[11] = system: Staphylococcus epidermidis ATCC 12228
[12] = system: Streptococcus agalactiae
[13] = system: Bacillus subtilis CMCC 63501
[14] = system: Pseudomonas aeruginosa ATCC 27853
[15] = system: Bacillus subtilis ATCC 6051
[16] = system: Escherichia coli NEB5alpha
[17] = system: Bacillus subtilis ATCC 6633
[18] = system: Pseudomonas aeruginosa ATCC BAA-427
[19] = system: Staphylococcus aureus ATCC 25923
[20] = system: Pseudomonas aeruginosa K799
[21] = system: Salmonella enterica subsp. enterica serovar Typhimurium ATCC 14028s
[22] = system: Staphylococcus epidermidis C621

CC[C@H](C)[C@H](N)C(=O)N[C@@H](CS)C(=O)N[C@@H](CCCN=C(N)N)C(=O)N[C@@H](CCCCN)C(=O)N1CCC[C@H]1C(=O)N[C@H](C(=O)N[C@H](C(=O)N[C@@H](CS)C(=O)N[C@@H](CCCN=C(N)N)C(=O)N[C@@H](CCCCN)C(=O)N1CCC[C@H]1C(=O)N[C@H](C(=O)N[C@H](C(=O)N[C@@H](CS)C(=O)N[C@@H](CCCN=C(N)N)C(=O)N[C@@H](CCCCN)C(=O)N1CCC[C@H]1C(=O)N[C@H](C(N)=O)[C@@H](C)CC)[C@@H](C)CC)[C@@H](C)CC)[C@@H](C)CC)[C@@H](C)CC [ICRKPIICRKPIICRKPI]
MIC [1]: > 64 µM
MIC [2]: 8 µM (≈ 17.2 µg/mL)
MIC [3]: 4 µM (≈ 8.6 µg/mL)
MIC [4]: 16 µM (≈ 34.4 µg/mL)
MIC [5]: ≥ 64 µM
MIC [6]: 8 µM (≈ 17.2 µg/mL)
MIC [7]: 8 µM (≈ 17.2 µg/mL)
MIC [8]: > 64 µM
MIC [9]: > 64 µM
MIC [10]: > 64 µM
MIC [11]: > 64 µM
MIC [12]: ≥ 64 µM

CC[C@H](C)[C@H](N)C(=O)N[C@H](C(=O)N[C@H](C(=O)N[C@@H](CS)C(=O)N[C@@H](CCCN=C(N)N)C(=O)N[C@@H](CCCCN)C(=O)N1CCC[C@H]1C(=O)N[C@H](C(=O)N[C@H](C(=O)N[C@@H](CS)C(=O)N[C@@H](CCCN=C(N)N)C(=O)N[C@@H](CCCCN)C(=O)N1CCC[C@H]1C(=O)N[C@H](C(=O)N[C@H](C(=O)N[C@@H](CS)C(=O)N[C@@H](CCCN=C(N)N)C(=O)N[C@@H](CCCCN)C(=O)N1CCC[C@H]1C(=O)N[C@H](C(=O)N[C@H](C(=O)N[C@@H](CS)C(=O)N[C@@H](CCCN=C(N)N)C(=O)N[C@@H](CCCCN)C(=O)N1CCC[C@H]1C(=O)N[C@H](C(=O)N[C@H](C(=O)N[C@H](C(N)=O)[C@@H](C)CC)[C@@H](C)CC)[C@@H](C)CC)[C@@H](C)CC)[C@@H](C)CC)[C@@H](C)CC)[C@@H](C)CC)[C@@H](C)CC)[C@@H](C)CC)[C@@H](C)CC)[C@@H](C)CC [IIICRKPIICRKPIICRKPIICRKPIII]
MIC [1]: 8 µM (≈ 26.5 µg/mL)
MIC [3]: 2 µM (≈ 6.63 µg/mL)
MIC [4]: 2 µM (≈ 6.63 µg/mL)
MIC [5]: 4 µM (≈ 13.3 µg/mL)
MIC [6]: 2 µM (≈ 6.63 µg/mL)
MIC [7]: 2 µM (≈ 6.63 µg/mL)
MIC [9]: 4 µM (≈ 13.3 µg/mL)
MIC [10]: 4 µM (≈ 13.3 µg/mL)
MIC [11]: 4 µM (≈ 13.3 µg/mL)
MIC [12]: 2 µM (≈ 6.63 µg/mL)

CC[C@H](C)[C@H](N)C(=O)N[C@H](C(=O)N[C@H](C(=O)N[C@@H](CS)C(=O)N[C@@H](CCCN=C(N)N)C(=O)N[C@@H](CCCCN)C(=O)N1CCC[C@H]1C(=O)N[C@H](C(=O)N[C@H](C(=O)N[C@@H](CS)C(=O)N[C@@H](CCCN=C(N)N)C(=O)N[C@@H](CCCCN)C(=O)N1CCC[C@H]1C(=O)N[C@H](C(=O)N[C@H](C(=O)N[C@H](C(N)=O)[C@@H](C)CC)[C@@H](C)CC)[C@@H](C)CC)[C@@H](C)CC)[C@@H](C)CC)[C@@H](C)CC)[C@@H](C)CC [IIICRKPIICRKPIII]
MIC [1]: > 64 µM
MIC [2]: 8 µM (≈ 15.1 µg/mL)
MIC [3]: 8 µM (≈ 15.1 µg/mL)
MIC [4]: ≥ 32 µM
MIC [5]: ≥ 32 µM
MIC [6]: 32 µM (≈ 60.5 µg/mL)
MIC [7]: ≥ 32 µM
MIC [8]: > 64 µM
MIC [9]: > 64 µM
MIC [10]: > 64 µM
MIC [11]: > 64 µM
MIC [12]: ≥ 64 µM

CC[C@H](C)[C@H](N)C(=O)N[C@@H](CCCN=C(N)N)C(=O)N[C@@H](CS)C(=O)N[C@@H](CCCN=C(N)N)C(=O)N[C@@H](CCCN=C(N)N)C(=O)N[C@@H](CCCN=C(N)N)C(=O)N[C@@H](Cc1ccccc1)C(=O)N[C@@H](CS)C(=O)N[C@@H](CCCN=C(N)N)C(=O)N[C@H](C(N)=O)[C@@H](C)CC [IRCRRRFCRI]
MIC [13]: 4 µM (≈ 5.51 µg/mL)
MIC [1]: 64 µM (≈ 88.2 µg/mL)
MIC [2]: 8 µM (≈ 11 µg/mL)
MIC [14]: 64 µM (≈ 88.2 µg/mL)
MIC [5]: 16 µM (≈ 22 µg/mL)
MIC [7]: ≥ 128 µM
MIC [8]: 64 µM (≈ 88.2 µg/mL)
MIC [11]: 64 µM (≈ 88.2 µg/mL)

CC[C@H](C)[C@H](NC(=O)[C@H](C)NC(=O)CNC(=O)[C@H](CCCCN)NC(=O)[C@H](CCC(=O)O)NC(=O)[C@H](CCC(=O)O)NC(=O)[C@H](CC(=O)O)NC(=O)[C@H](CCC(=O)O)NC(=O)[C@H](CC(=O)O)NC(=O)[C@H](CCCN=C(N)N)NC(=O)CNC(=O)[C@H](CCC(N)=O)NC(=O)[C@H](CC(C)C)NC(=O)[C@@H](N)CCCCN)C(=O)N[C@H](C(=O)N[C@@H](CCCCN)C(=O)N[C@H](C(=O)N[C@@H](CCCCN)C(=O)NCC(=O)NCC(=O)N[C@@H](CC(C)C)C(=O)O)C(C)C)C(C)C [KLQGRDEDEEKGAIVKVKGGL]
MIC [15]: ≥ 1000 µM
MIC [16]: ≥ 500 µM

CC[C@H](C)[C@H](NC(=O)[C@H](C)NC(=O)CNC(=O)[C@H](CCCCN)NC(=O)[C@H](CCC(=O)O)NC(=O)[C@H](CCC(=O)O)NC(=O)[C@H](CC(=O)O)NC(=O)[C@H](CCC(=O)O)NC(=O)[C@H](CC(N)=O)NC(=O)[C@H](CCCN=C(N)N)NC(=O)CNC(=O)[C@H](CCC(N)=O)NC(=O)[C@H](CC(C)C)NC(=O)[C@@H](N)CCCCN)C(=O)N[C@H](C(=O)N[C@@H](CCCCN)C(=O)N[C@H](C(=O)N[C@@H](CCCCN)C(=O)NCC(=O)NCC(=O)N[C@@H](CC(C)C)C(=O)O)C(C)C)C(C)C [KLQGRNEDEEKGAIVKVKGGL]
MIC [15]: ≥ 1000 µM
MIC [16]: ≥ 1000 µM

CC(C)C[C@H](NC(=O)[C@H](CCCN=C(N)N)NC(=O)[C@H](CC(C)C)NC(=O)[C@H](CC(C)C)NC(=O)[C@H](CCC(N)=O)NC(=O)[C@H](CCC(=O)O)NC(=O)[C@H](CC(C)C)NC(=O)[C@H](Cc1ccc(O)cc1)NC(=O)CNC(=O)[C@@H](N)CC(C)C)C(=O)O [LGYLEQLLRL]
MIC [16]: ≥ 1360 µM

CC(C)C[C@H](NC(=O)[C@H](CC(=O)O)NC(=O)[C@H](CC(C)C)NC(=O)[C@H](CCCCN)NC(=O)[C@H](CC(C)C)NC(=O)[C@H](CC(=O)O)NC(=O)[C@H](CC(C)C)NC(=O)[C@H](CCCCN)NC(=O)[C@H](CC(C)C)NC(=O)[C@H](CC(=O)O)NC(=O)[C@H](CC(C)C)NC(=O)[C@H](CCCCN)NC(=O)[C@@H](N)CCCN=C(N)N)C(=O)O [RKLDLKLDLKLDL]
MIC [17]: 30 µM (≈ 47.5 µg/mL)
MIC [2]: 30 µM (≈ 47.5 µg/mL)
MIC [18]: ≥ 42 µM
MIC [19]: 25 µM (≈ 39.6 µg/mL)

CC[C@H](C)[C@@H]1NC(=O)[C@H](CCCN=C(N)N)NC(=O)[C@H](C(C)C)NC(=O)[C@H](CCCN=C(N)N)NC(=O)[C@@H]2CCCN2C(=O)[C@@H](NC(=O)[C@H](CC(C)C)NC(=O)[C@@H](N)CCCN=C(N)N)CSSC[C@@H](C(=O)N[C@@H](CCCN=C(N)N)C(N)=O)NC(=O)[C@H](C(C)C)NC(=O)[C@H](CCCN=C(N)N)NC1=O [RLCPRVRIRVCR]
MIC [1]: > 21 µM
MIC [3]: 2.62 µM (≈ 3.99 µg/mL)
MIC [20]: 10.5 µM (≈ 16 µg/mL)
MIC [21]: 21 µM (≈ 31.9 µg/mL)
MIC [19]: > 21 µM
MIC [22]: 10.5 µM (≈ 16 µg/mL)

CC(C)C[C@H](NC(=O)[C@H](CC(=O)O)NC(=O)[C@H](CC(C)C)NC(=O)[C@H](CCCCN)NC(=O)[C@H](CC(C)C)NC(=O)[C@H](CC(=O)O)NC(=O)[C@H](CC(C)C)NC(=O)[C@H](CCCCN)NC(=O)[C@H](CC(C)C)NC(=O)[C@H](CC(=O)O)NC(=O)[C@H](CC(C)C)NC(=O)[C@H](CCCCN)NC(=O)[C@H](CCCN=C(N)N)NC(=O)[C@@H](N)CCCN=C(N)N)C(=O)O [RRKLDLKLDLKLDL]
MIC [17]: 10 µM (≈ 17.4 µg/mL)
MIC [2]: 10 µM (≈ 17.4 µg/mL)
MIC [18]: 10 µM (≈ 17.4 µg/mL)
MIC [19]: 8 µM (≈ 13.9 µg/mL)

NC(=O)[C@H](Cc1c[nH]c2ccccc12)NC(=O)[C@H](CCCN=C(N)N)NC(=O)[C@H](Cc1c[nH]c2ccccc12)NC(=O)[C@H](CCCN=C(N)N)NC(=O)[C@H](CS)NC(=O)[C@H](Cc1ccccc1)NC(=O)[C@H](CCCN=C(N)N)NC(=O)[C@H](CCCN=C(N)N)NC(=O)[C@H](CCCN=C(N)N)NC(=O)[C@H](CS)NC(=O)[C@H](CCCN=C(N)N)NC(=O)[C@H](Cc1c[nH]c2ccccc12)NC(=O)[C@H](CCCN=C(N)N)NC(=O)[C@@H](N)Cc1c[nH]c2ccccc12 [WRWRCRRRFCRWRW]
MIC [13]: 1 µM (≈ 2.21 µg/mL)
MIC [1]: 2 µM (≈ 4.42 µg/mL)
MIC [2]: 4 µM (≈ 8.83 µg/mL)
MIC [14]: 8 µM (≈ 17.7 µg/mL)
MIC [5]: 2 µM (≈ 4.42 µg/mL)
MIC [7]: 4 µM (≈ 8.83 µg/mL)
MIC [8]: 4 µM (≈ 8.83 µg/mL)
MIC [11]: 2 µM (≈ 4.42 µg/mL)
